According to patent US8367367B2, “Kit for positively detecting toxic material” (Samsung Electronics Co., Ltd., priority 2006, dated 2013):
Like-named read-outs stand apart in the source and are kept apart here.

What was measured:
[1] = system: electron transfer system of the sub-mitochondrial particles; details: 10 min
Method: FIG. 3A is a graph illustrating the pH values at one-minute intervals when 20 wt % of ethanol, (toxic material) and 20 wt % of sorbitol (non-toxic material) are added to sub-mitochondrial particles and an electron donor to cause reactions.
FIGS. 5A and 5B illustrate an exemplary embodiment of a method of positively detecting toxic materials in which phenolphthalein is used as a pH indicator. FIG. 5A is a graph illustrating pH values at two-minute intervals when 20 wt % of ethanol (toxic material), 2.5 wt % of ethanol (toxic material), and 20 wt % of sorbitol (non-toxic material) were added to sub-mitochondrial particles and an electron donor to cause reactions. FIG. 5B is a graph and showing the final pH value of each reactant after the reaction solutions were allowed to react for 10 minutes according to the reaction described in FIG. 5A.

[2] = system: electron transfer system of the sub-mitochondrial particles
Excerpt: NaOH was adequately added to a pH indicator, phenol red, to adjust the pH to 10. […] The reaction resultants obtained by the above process and a phenol red solution were mixed together with the weight ratio of 1:1 to identify the color of the mixture solution.

Structure (SMILES)	final pH of the reaction resultant ([1]; 2.5 wt %)	final pH of the reaction resultant ([1]; 20 wt %)	color of the mixture solution (phenol red) [2]
CCO [ethanol]	8.16	6.43	–
OC[C@@H](O)[C@@H](O)[C@H](O)[C@@H](O)CO [sorbitol]	–	9.17	remain the same
